The source of these data is US7488576B2, “Methods for diagnosis and treatment of psychiatric disorders” (The Regents of the University of California, priority 2000, dated 2009).

The structures appear in SMILES notation. Values joined by “and” are separate entries in the source; they are usually repeats but may differ in a detail not shown here. Equal entries are not always repeated.

One test concerns DBP. The test can be described thus: Gene expression in rat brain after stimulant treatment (Affymetrix U34A GeneChip), prefrontal cortex. To be noted: 24 h, read-out: Fold Induction of DBP. The method, then:
(§1) In experiments conducted during the development of the present invention, the rat animal model was used. This model is commonly accepted by those in the art for experiments involving psychiatric disorders. In some experiments, rats were treated with a single dose of methamphetamine (4 mg/kg) and sacrificed 24 hours later. This timepoint was chosen as that most likely to detect changes of relevance to mania and psychosis. It was hypothesized that at 24 hours, most short term gene induction relevant to acute intoxication and behavioral activation would have subsided. […] As mania and psychosis are typically chronic processes in man, more persistent gene changes are more likely to be central to pathophysiological mechanisms. Gene expression was examined in the prefrontal cortex and amygdala, using the Afymetrix U34A GeneChip, which interrogates approximately 7,000 known genes and 1,000 ESTs (expressed sequence tags) using an oligonucleotide nicroarray (See, Lipshutz et al., Nat. Genet. 21:20 [1999]). These brain regions were chosen based on the extensive literature that highlights their central role in cognition and emotion (See e.g., Heimer and Alheid, Adv. Exp. Med. Biol. 1:295 [1991]).
(§2) A two-fold increase or decrease in expression was chosen as a conventional empirical cut-off. Thus, at least a two-fold change in each of two independent animal experiments was used to select those genes with the most robust and reproducible change in expression. In each experiment, pooled tissues from three methamphetamine-treated and three control rats were used. In these analyses, standard default settings of the Affymetrix GeneChip Expression Algorithm were used. A gene had to be called “Present” and “Changed,” in at least one out of two experiments and had to have an Average Difference Change greater than 50, as well as a fold change greater than 2 in two out of two experiments. […] The genes that were induced more than two-fold in both experiments were also identified by their GenBank accession numbers, as indicated in Tables 1 and 2.
(§3) After 24 hours, the rats were humanely sacrificed and the brains were harvested.
(§4) Tissues from each brain region from the three animals in each experimental group were pooled (i.e., test and control animals). Total RNA was isolated from the tissue using standard protocols known in the art. Briefly, STAT-60 extraction buffer, and phenol/chloroform extraction was used. cDNA was synthesized and used as templates to produce biotin-labelled antisense cRNAs using an in vitro transcription reaction. After fragmentation, the CRNA hybridization cocktail was prepared, cleaned, and applied to the Affymetrix GeneChip oligonucleotide array.
(§5) A two-fold increase or decrease in expression was chosen as a conventional empirical cut-off. […]

A further test concerns FDFT1. Described as above. To be noted: 24 h, read-out: Fold Induction of FDFT1. The protocol: as §1, §2, §3, §4, §5
The next test relates to GRK3. The test is described as above. To be noted: 24 h, read-out: Fold Induction of GRK3. The protocol:
as §1, §2, §3, §4, §5

The test system of the next test is MALS-1. Described as above. To be noted: 24 h, read-out: Fold Induction of MALS-1. The method, then: as §1, §2, §3, §4, §5
The test system of the next test is ADORA3. The test can be described thus: Gene expression in rat brain after stimulant treatment (Affymetrix U34A GeneChip), amygdala. To be noted: 24 h, read-out: Fold Induction of ADORA3. The protocol:
as §1, §2, §3, §4
(§6) A two-fold increase or decrease in expression was chosen as a conventional empirical cut-off. Thus, at least a two-fold change in each of two independent animal experiments was used to select those genes with the most robust and reproducible change in expression. In these analyses, standard default settings of the Affymetrix GeneChip Expression Algorithm were used.

A further test deals with FCGRT. The test is described as above. To be noted: 24 h, read-out: Fold Induction of FCGRT. The method, then:
as §1, §2, §3, §4, §6

The next test relates to FEZ2. Described as above. To be noted: 24 h, read-out: Fold Induction of FEZ2. The protocol:
as §1, §2, §3, §4, §6

A further test concerns HSPB1. Described as above. To be noted: 24 h, read-out: Fold Induction of HSPB1. The protocol:
as §1, §2, §3, §4, §6

The next test deals with IGF1. The test is described as above. To be noted: 24 h, read-out: Fold Induction of IGF1. The protocol:
as §1, §2, §3, §4, §6

Another test relates to NDUFS8. The test is described as above. To be noted: 24 h, read-out: Fold Induction of NDUFS8. The method, then: as §1, §2, §3, §4, §6
In a further test the test system is NTRK3. Described as above. To be noted: 24 h, read-out: Fold Induction of NTRK3. The protocol: as §1, §2, §3, §4, §6
The next test concerns POLR2F. Described as above. To be noted: 24 h, read-out: Fold Induction of POLR2F. The method, then:
as §1, §2, §3, §4, §6

The subject of a further test is SULT1A1. The test is described as above. To be noted: 24 h, read-out: Fold Induction of SULT1A1. The protocol:
as §1, §2, §3, §4, §6

A further test has as its system FGFR1. The test can be described thus: Gene expression in rat brain after stimulant treatment (Affymetrix U34A GeneChip). To be noted: 24 hours after single dose 4 mg/kg. It is filed as in vivo. The protocol: as §1
(§7) A two-fold increase or decrease in expression was chosen as a conventional empirical cut-off. Thus, at least a two-fold change in each of two independent animal experiments was used to select those genes with the most robust and reproducible change in expression. In each experiment, pooled tissues from three methamphetamine-treated and three control rats were used. In these analyses, standard default settings of the Affymetrix GeneChip Expression Algorithm were used. A gene had to be called “Present” and “Changed,” in at least one out of two experiments and had to have an Average Difference Change greater than 50, as well as a fold change greater than 2 in two out of two experiments. […] The genes that were induced more than two-fold in both experiments were also identified by their GenBank accession numbers, as indicated in Tables 1 and 2. […]

A further test deals with GRK2. Described as above. To be noted: 24 hours after single dose 4 mg/kg, one value per each of two experiments. The test is classed as in vivo. The protocol: as §1, §7

On to `CN[C@@H](C)Cc1ccccc1` [methamphetamine], for which the fold induction at 4 mg/kg came out at 7 in the test on DBP; 2.9 with FDFT1; 14.2 in the test on GRK3; 2.9 in the test on MALS-1; 2.7 with ADORA3; 3.2 with FCGRT. Also, the fold induction at 4 mg/kg in the test with FEZ2 amounted to 2.3; in the test on HSPB1 it was 2.8; in the test with IGF1, 3; in the test on NDUFS8 it was 20.8; in the test on NTRK3, 2.7; in the test on POLR2F, 3.9. Moreover, the fold induction at 4 mg/kg in the test with SULT1A1 came out at 4.3. Further, in the test on FGFR1 (average of two experiments), the “average fold change of FGFR1 expression” value is recorded as 4.1 fold. In the test with FGFR1 (one of the two experiments), the “fold increase of FGFR1 expression in one of the two experiments” value is on record as 1.8 fold. Also, the “fold changes in GRK2 expression” value in the test with GRK2 was 1.1 fold and 1.0 fold.
